11 compounds from PubChem BioAssay (NCI) can be followed below.

Common to all, as to test: NCI tumour cell line growth inhibition, 48 h
The test system of assay [1] is NCI/ADR-RES ovarian.
Assay [2] relates to MCF7 breast.
The test system of assay [3] is NCI-H522 lung.
In assay [4] the test system is OVCAR-4 ovarian.
The subject of assay [5] is COLO 205 colon.
Assay [6] has as its system SR leukemia.
The test system of assay [7] is UO-31 renal.
The test system of assay [8] is SF-295 CNS.
Assay [9] has as its system SNB-75 CNS.
The test system of assay [10] is MDA-MB-435.

Each structure is given as a SMILES string.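 1) Cells in 96-well plates. 2) Compound, 48 h, 5 concentrations. 3) Linear interpolation between surrounding doses. 4) Unreached endpoint = highest concentration. TGI marks complete inhibition of growth.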 Bounds are passed on as bounds.

Consider `Cc1ccccc1N=Nc1c(O)c(S(=O)(=O)O)cc2cc(S(=O)(=O)O)ccc12`, for which the TGI in assay [1], in assay [2], in assay [3], in assay [4], in assay [5] and in assay [6] was above 100 µM throughout. Also, the TGI in [7], in [8], in assay [9] and in [10] was above 100 µM throughout.

As to `O=c1c2cc(I)ccc2nc(SCc2nncs2)n1Cc1ccccc1`, the TGI in [1] is above 100 µM; in assay [2], above 100 µM; in [3], 61 µM; in assay [4] it was above 100 µM; in assay [5], above 100 µM; in [6], above 100 µM. For the same compound, the TGI in assay [7] was 2.6 µM; in assay [8] it was above 100 µM; in [9], 74.9 µM; in [10], above 100 µM.

For `COc1c(CC=C(C)C)c(O)c(C(CC(C)C)c2c(O)c3c(c(C(C)=O)c2O)OC(C(C)(C)O)C3)c(O)c1C(C)=O` (stereo not given), the TGI in [1] is 11.1 µM; in assay [2], 9.87 µM; in assay [3], above 12.5 µM; in assay [4], above 12.5 µM; in [5], 8.38 µM; in assay [6], 6.93 µM. In addition, the TGI in assay [7], in [8], in assay [9] and in assay [10] was above 12.5 µM in each case.

Consider `O=C(O[C@@H](/C=C/c1ccccc1)P1(=O)N(Cc2ccccc2)[C@H]2CCCC[C@@H]2N1Cc1ccccc1)c1ccccc1`, for which the TGI in [1] is above 100 µM; in assay [2], 6.77 µM; in assay [3], above 100 µM; in [4] it was above 100 µM; in assay [5], 3.17 µM; in assay [6], 13.8 µM. Moreover, the TGI in [7] is 11.7 µM; in assay [8] it was above 100 µM; in [9], above 100 µM; in assay [10], above 100 µM.

For `O=C(O)c1ccc(C(=O)c2ccccc2C(=O)O)cc1C(=O)O`, the TGI in [1], in assay [2], in assay [3], in assay [4], in assay [5] and in [6] was above 100 µM in each case. In addition, the TGI in assay [7], in assay [8], in assay [9] and in assay [10] was above 100 µM throughout.

Take `O=c1[nH]c2nnc(COc3ccc(Cl)cc3Cl)n2nc1Cc1ccccc1`: the TGI in [1], in assay [2], in [3], in [4], in [5] and in assay [6] was above 100 µM throughout. The TGI in [7] is above 100 µM; in assay [8], above 100 µM; in assay [9], 38.8 µM; in assay [10] it was above 100 µM.

With `C[N+]1(CCC(=O)c2ccco2)CC2CCC(CC2)C1` (stereo not given), the TGI in [1], in assay [2], in [3], in assay [4], in [5] and in assay [6] was above 100 µM throughout. The TGI in assay [7], in assay [8], in assay [9] and in [10] was above 100 µM each time.

As for `CC(ON(C(c1ccccc1)C(C)C)C(C)(C)C)c1ccccc1` (stereo not given), the TGI in [1] is 56.7 µM; in [2] it was 30 µM; in [3], 44.4 µM; in assay [4], above 100 µM; in assay [5], 32.5 µM; in [6] it was 67.6 µM. Besides, the TGI in [7] is 43.3 µM; in assay [8], 28.5 µM; in assay [9], 42.9 µM; in [10], 68.9 µM.

Take `Nc1c(C(=O)O)nnc2cc(Cl)c(Cl)cc12`: the TGI in assay [1], in assay [2], in [3], in assay [4], in [5] and in [6] was above 100 µM in each case. Also, the TGI in [7], in [8], in assay [9] and in assay [10] was above 100 µM in each case.

On to `Cc1c(N2C(=O)/C(=C/c3ccc(Cl)cc3)N=C2c2ccccc2)c(=O)n(-c2ccccc2)n1C`, for which the TGI in [1] is above 100 µM; in assay [2], above 100 µM; in assay [3] it was 44.8 µM; in assay [4], above 100 µM; in [5], 30.1 µM; in [6], 76.3 µM. For the same compound, the TGI in assay [7] is 93.7 µM; in assay [8], above 100 µM; in assay [9], 80.3 µM; in [10], 43.8 µM.

As for `COc1ccc(C2NC(=S)Nc3c2c(=O)oc2c3ccc3ccccc32)cc1` (stereo not given), the TGI in assay [1], in assay [2], in assay [3], in [4], in assay [5] and in assay [6] was above 100 µM throughout. The TGI is above 100 µM in [7], above 100 µM in [8], 96.4 µM in assay [9] and above 100 µM in [10].
